The numbers were not newly measured in patent US10220158B2 (kaleo, Inc., priority 2014, dated 2019), which cites them from elsewhere.

The conditions of the data set: jet injector vs conventional syringe.

As to `Cc1ncc2n1-c1ccc(Cl)cc1C(c1ccccc1F)=NC2` [midazolam], the “peak midazolam plasma concentrations produced faster” value was “over 30%”.
